Results: patent publication US8247211B2, “Glycopeptide antibiotics” (American Cyanamid Company, priority 2001, dated 2012)
≈ marks a conversion by molar mass, not a printed value. Values belong to the molecule of their own block, whether it stands above or below them.

Assays:
Assay in all cases: In vitro antibacterial evaluation: minimum inhibitory concentration (MIC), broth dilution method
Format in all cases: cell-based
Enterococcus sp. = tested on: Enterococcus sp.
Procedure: (§1) The minimum inhibitory concentration (MIC), the lowest concentration of the antibiotic which inhibits growth of the test organism, is determined by the broth dilution method using Muller-Hinton II […] (Baltimore Biological Laboratories) following the recommendations of the National Committee for Clinical Laboratory Standards [Methods for dilution antimicrobial susceptibility tests for bacteria that grow aerobically, approved standard M7-A2, National Committee for Clinical Laboratory Standards, Villanova, Pa].
(§2) An inoculum level of 5×10^5 CFU/mL, and a range of antibiotic concentrations (64-0.06 μg/mL) is used. […] The test organisms include a spectrum of Gram-positive bacteria comprised of Staphylococcus sp., Streptococcus sp. and Enterococcus sp. These organisms include recent clinical isolates that are resistant to methicillin, penicillin and/or vancomycin.

Escherichia coli = tested on: Escherichia coli
Procedure: as §1, §2

Staphylococcus sp. = tested on: Staphylococcus sp.
Procedure: as §1, §2

Streptococcus sp. = tested on: Streptococcus sp.
Procedure: as §1, §2

[1] = broth dilution, 5×10^5 CFU/mL, 18 hours at 35° C.
[2] = 5×10^5 CFU/mL, 18 hours at 35° C.
[3] = strain GC 4543, broth dilution, 18 hours at 35° C.
[4] = strain GC 4546, broth dilution, 18 hours at 35° C.
[5] = strain GC 4547, broth dilution, 18 hours at 35° C.
[6] = strain GC 4548, broth dilution, 18 hours at 35° C.
[7] = strain GC 4549, broth dilution, 18 hours at 35° C.
[8] = strain GC 4551, broth dilution, 18 hours at 35° C.
[9] = strain GC 6257, broth dilution, 18 hours at 35° C.

MIC Enterococccus avium (GC 4558) (Enterococcus sp.; [1]): 0.5 µg/mL (≈ 0.361 µM)
MIC Enterococccus faecalis (ATCC 29212) (Enterococcus sp.; [1]): 0.5 µg/mL (≈ 0.361 µM)
MIC Enterococccus faecalis (GC 2691) (Enterococcus sp.; [1]): 0.5 µg/mL (≈ 0.361 µM)
MIC Enterococccus faecalis (GC 3059) (Enterococcus sp.; [1]): 0.5 µg/mL (≈ 0.361 µM)
MIC Enterococccus faecalis (GC 4552) (Enterococcus sp.; [1]): 0.5 µg/mL (≈ 0.361 µM)
MIC Enterococccus faecalis (GC 4553) (Enterococcus sp.; [1]): 0.5 µg/mL (≈ 0.361 µM)
MIC Enterococccus faecalis (GC 4554) (Enterococcus sp.; [1]): 0.5 µg/mL (≈ 0.361 µM)
MIC Enterococccus faecalis (GC 6189) (Enterococcus sp.; [1]): 0.5 µg/mL (≈ 0.361 µM)
MIC Enterococccus faecium (GC 2243) (Enterococcus sp.; [1]): 0.5 µg/mL (≈ 0.361 µM)
MIC Enterococccus faecium (GC 4556) (Enterococcus sp.; [1]): 0.5 µg/mL (≈ 0.361 µM)
MIC Enterococccus faecium (GC 4557) (Enterococcus sp.; [1]): 0.5 µg/mL (≈ 0.361 µM)
MIC Enterococcus faecalis (GC 2242) (Enterococcus sp.; [1]): 0.5 µg/mL (≈ 0.361 µM)
MIC Escherichia coli (ATCC 25922) (Escherichia coli; [2]): >0.5 µg/mL
MIC Escherichia coli (GC 4559) (Escherichia coli; [2]): >0.5 µg/mL
MIC Escherichia coli (GC 4560) (Escherichia coli; [2]): 0.5 µg/mL (≈ 0.361 µM)
MIC Staphylococcus aureus (ATCC 29213) (Staphylococcus sp.; strain ATCC 29213): 0.5 µg/mL (≈ 0.361 µM)
MIC Staphylococcus aureus (GC 1131) (Staphylococcus sp.; strain GC 1131): 0.5 µg/mL (≈ 0.361 µM)
MIC Staphylococcus aureus (GC 3051) (Staphylococcus sp.; strain GC 3051): 0.5 µg/mL (≈ 0.361 µM)
MIC Staphylococcus aureus (GC 3053) (Staphylococcus sp.; strain GC 3053): 0.5 µg/mL (≈ 0.361 µM)
MIC Staphylococcus aureus (GC 4541) (Staphylococcus sp.; strain GC 4541): 0.5 µg/mL (≈ 0.361 µM)
MIC Staphylococcus aureus (GC 4542) (Staphylococcus sp.; strain GC 4542): 0.5 µg/mL (≈ 0.361 µM)
MIC Staphylococcus aureus-SMITH (GC 4543) (Staphylococcus sp.; strain GC 4543, 18 hours at 35° C.): 0.5 µg/mL (≈ 0.361 µM)
MIC Staphylococcus aureus-SMITH (GC 4543) (Staphylococcus sp.; [3]): 0.5 µg/mL (≈ 0.361 µM)
MIC Staphylococcus aureus (GC 4544) (Staphylococcus sp.; strain GC 4544): 0.5 µg/mL (≈ 0.361 µM)
MIC Staphylococcus aureus (GC 4545) (Staphylococcus sp.; strain GC 4545): 0.5 µg/mL (≈ 0.361 µM)
MIC Coagulase Negative Staphylococcus (GC 4547) (Staphylococcus sp.; strain GC 4547): 4 µg/mL (≈ 2.89 µM)
MIC Coagulase Negative Staphylococcus (GC 4547) (Staphylococcus sp.; [5]): 4 µg/mL (≈ 2.89 µM)
MIC Coagulase Negative Staphylococcus (GC 4548) (Staphylococcus sp.; strain GC 4548): 4 µg/mL (≈ 2.89 µM)
MIC Coagulase Negative Staphylococcus (GC 4548) (Staphylococcus sp.; [6]): 4 µg/mL (≈ 2.89 µM)
MIC Coagulase Negative Staphylococcus (GC 4549) (Staphylococcus sp.; strain GC 4549): 4 µg/mL (≈ 2.89 µM)
MIC Coagulase Negative Staphylococcus (GC 4549) (Staphylococcus sp.; [7]): 4 µg/mL (≈ 2.89 µM)
MIC Coagulase Negative Staphylococcus (GC 4551) (Staphylococcus sp.; strain GC 4551): 8 µg/mL (≈ 5.78 µM)
MIC Coagulase Negative Staphylococcus (GC 4551) (Staphylococcus sp.; [8]): 8 µg/mL (≈ 5.78 µM)
MIC Coagulase Negative Staphylococcus (GC 6257) (Staphylococcus sp.; strain GC 6257): 2 µg/mL (≈ 1.45 µM)
MIC Coagulase Negative Staphylococcus (GC 6257) (Staphylococcus sp.; [9]): 2 µg/mL (≈ 1.45 µM)
MIC Streptococcus agalactiae (GC 4564) (Streptococcus sp.; [1]): 0.5 µg/mL (≈ 0.361 µM)
MIC Streptococcus pneumoniae (GC 1894) (Streptococcus sp.; [1]): 0.12 µg/mL (≈ 0.0867 µM)
MIC Streptococcus pneumoniae (GC 4565) (Streptococcus sp.; [1]): 0.12 µg/mL (≈ 0.0867 µM)
MIC Streptococcus pneumonine (ATCC 6301) (Streptococcus sp.; [1]): 0.12 µg/mL (≈ 0.0867 µM)
MIC Streptococcus pyogenes (GC 4563) (Streptococcus sp.; [1]): 0.12 µg/mL (≈ 0.0867 µM)
SMILES: CC(c1ccccc1)C1NC(=O)CNC(=O)C(CO)NC(=O)C(C(O)C2CNC(=N)N2C2OC(CO)C(O)C(O)C2O)NC(=O)C(C(O)C2CNC(=N)N2)NC(=O)C(Cc2ccc(OC3OC(CO)C(OC4OC(CO)C(O)C5OC(c6ccccc6)OC45)C(O)C3O)cc2)NC1=O (single isomer, unassigned) [Example 104b, Cyclo[glycyl-β-methylphenylalanyl-O-[4-O-(2,3-O-benzylidenehexopyranosyl)hexopyranosyl]-tyrosyl-3(2-iminoimidazolidin-4-yl)seryl-3-(3-hexopyranosyl-2-iminoimidazolidin-4-yl)-serylseryl]]
MIC Staphylococcus haemolyticus (GC 4546) (Staphylococcus sp.; strain GC 4546): 0.5 µg/mL (≈ 0.361 µM)
MIC Staphylococcus haemolyticus (GC 4546) (Staphylococcus sp.; [4]): 0.5 µg/mL (≈ 0.361 µM)

MIC Enterococcus faecalis (ATCC 29212) (Enterococcus sp.; strain ATCC 29212): >64 µg/mL
MIC Enterococcus faecalis (GC 2242) (Enterococcus sp.; strain GC 2242): >64 µg/mL
MIC Enterococcus faecium (GC 2243) (Enterococcus sp.; strain GC 2243): >64 µg/mL
MIC Enterococcus faecalis (GC 2691) (Enterococcus sp.; strain GC 2691): >64 µg/mL
MIC Enterococcus faecalis (GC 3059) (Enterococcus sp.; strain GC 3059): >64 µg/mL
MIC Enterococcus faecalis (GC 4552) (Enterococcus sp.; strain GC 4552): >64 µg/mL
MIC Enterococcus faecalis (GC 4553) (Enterococcus sp.; strain GC 4553): >64 µg/mL
MIC Enterococcus faecalis (GC 4554) (Enterococcus sp.; strain GC 4554): >64 µg/mL
MIC Enterococcus faecium (GC 4556) (Enterococcus sp.; strain GC 4556): >64 µg/mL
MIC Enterococcus faecium (GC 4557) (Enterococcus sp.; strain GC 4557): 16 µg/mL (≈ 11.3 µM)
MIC Enterococcus avium (GC 4558) (Enterococcus sp.; strain GC 4558): 64 µg/mL (≈ 45.3 µM)
MIC Enterococcus faecalis (GC 6189) (Enterococcus sp.; strain GC 6189): >64 µg/mL
MIC Escherichia coli (ATCC 25922) (Escherichia coli; strain ATCC 25922): >64 µg/mL
MIC Escherichia coli (GC 4559) (Escherichia coli; strain GC 4559): >64 µg/mL
MIC Escherichi coli (GC 4560) (Escherichia coli; strain GC 4560): 8 µg/mL (≈ 5.66 µM)
MIC Coagulase Negative Staphylococcus (GC 4547) (Staphylococcus sp.; [1]): 16 µg/mL (≈ 11.3 µM)
MIC Coagulase Negative Staphylococcus (GC 4548) (Staphylococcus sp.; [1]): 8 µg/mL (≈ 5.66 µM)
MIC Coagulase Negative Staphylococcus (GC 4549) (Staphylococcus sp.; [1]): 8 µg/mL (≈ 5.66 µM)
MIC Coagulase Negative Staphylococcus (GC 4551) (Staphylococcus sp.; [1]): 16 µg/mL (≈ 11.3 µM)
MIC Coagulase Negative Staphylococcus (GC 6257) (Staphylococcus sp.; [1]): 8 µg/mL (≈ 5.66 µM)
MIC Staphylococcus aureus (ATCC 29213) (Staphylococcus sp.; [1]): 32 µg/mL (≈ 22.6 µM)
MIC Staphylococcus aureus (GC 1131) (Staphylococcus sp.; [1]): 32 µg/mL (≈ 22.6 µM)
MIC Staphylococcus aureus (GC 3051) (Staphylococcus sp.; [1]): 32 µg/mL (≈ 22.6 µM)
MIC Staphylococcus aureus (GC 3053) (Staphylococcus sp.; [1]): 32 µg/mL (≈ 22.6 µM)
MIC Staphylococcus aureus (GC 4541) (Staphylococcus sp.; [1]): 16 µg/mL (≈ 11.3 µM)
MIC Staphylococcus aureus (GC 4542) (Staphylococcus sp.; [1]): 32 µg/mL (≈ 22.6 µM)
MIC Staphylococcus aureus (GC 4544) (Staphylococcus sp.; [1]): 32 µg/mL (≈ 22.6 µM)
MIC Staphylococcus aureus (GC 4545) (Staphylococcus sp.; [1]): 32 µg/mL (≈ 22.6 µM)
MIC Staphylococcus aureus-SMITH (GC 4543) (Staphylococcus sp.; [1]): 16 µg/mL (≈ 11.3 µM)
MIC Staphylococcus aureus (ATCC 29213) (Staphylococcus sp.; strain ATCC 29213, broth dilution, 18 hours at 35° C.): 32 µg/mL (≈ 22.6 µM)
MIC Staphylococcus aureus (GC 1131) (Staphylococcus sp.; strain GC 1131, broth dilution, 18 hours at 35° C.): 32 µg/mL (≈ 22.6 µM)
MIC Staphylococcus aureus (GC 3051) (Staphylococcus sp.; strain GC 3051, broth dilution, 18 hours at 35° C.): 32 µg/mL (≈ 22.6 µM)
MIC Staphylococcus aureus (GC 3053) (Staphylococcus sp.; strain GC 3053, broth dilution, 18 hours at 35° C.): 32 µg/mL (≈ 22.6 µM)
MIC Staphylococcus aureus (GC 4541) (Staphylococcus sp.; strain GC 4541, broth dilution, 18 hours at 35° C.): 16 µg/mL (≈ 11.3 µM)
MIC Staphylococcus aureus (GC 4542) (Staphylococcus sp.; strain GC 4542, broth dilution, 18 hours at 35° C.): 32 µg/mL (≈ 22.6 µM)
MIC Staphylococcus aureus-SMITH (GC 4543) (Staphylococcus sp.; [3]): 16 µg/mL (≈ 11.3 µM)
MIC Staphylococcus aureus (GC 4544) (Staphylococcus sp.; strain GC 4544, broth dilution, 18 hours at 35° C.): 32 µg/mL (≈ 22.6 µM)
MIC Staphylococcus aureus (GC 4545) (Staphylococcus sp.; strain GC 4545, broth dilution, 18 hours at 35° C.): 32 µg/mL (≈ 22.6 µM)
MIC Coagulase Negative Staphylococcus (GC 4547) (Staphylococcus sp.; [5]): 16 µg/mL (≈ 11.3 µM)
MIC Coagulase Negative Staphylococcus (GC 4548) (Staphylococcus sp.; [6]): 8 µg/mL (≈ 5.66 µM)
MIC Coagulase Negative Staphylococcus (GC 4549) (Staphylococcus sp.; [7]): 8 µg/mL (≈ 5.66 µM)
MIC Coagulase Negative Staphylococcus (GC 4551) (Staphylococcus sp.; [8]): 16 µg/mL (≈ 11.3 µM)
MIC Coagulase Negative Staphylococcus (GC 6257) (Staphylococcus sp.; [9]): 8 µg/mL (≈ 5.66 µM)
MIC Streptococcus pneumoniae (ATCC 6301) (Streptococcus sp.; strain ATCC 6301): 8 µg/mL (≈ 5.66 µM)
MIC Streptococcus pneumoniae (GC 1894) (Streptococcus sp.; strain GC 1894): 4 µg/mL (≈ 2.83 µM)
MIC Streptococcus pyogenes (GC 4563) (Streptococcus sp.; strain GC 4563): 16 µg/mL (≈ 11.3 µM)
MIC Streptococcus agalactiae (GC 4564) (Streptococcus sp.; strain GC 4564): 16 µg/mL (≈ 11.3 µM)
MIC Streptococcus pneumoniae (GC 4565) (Streptococcus sp.; strain GC 4565): 16 µg/mL (≈ 11.3 µM)
SMILES: COc1cccc(C2OC3C(OC4C(CO)OC(Oc5ccc(CC6NC(=O)C(C(C)c7ccccc7)NC(=O)CNC(=O)C(CO)NC(=O)C(C(O)C7CNC(=N)N7C7OC(CO)C(O)C(O)C7O)NC(=O)C(C(O)C7CNC(=N)N7)NC6=O)cc5)C(O)C4O)OC(CO)C(O)C3O2)c1 (single isomer, unassigned) [Example 137a, Cyclo[glycyl-β-methylphenylalanyl-O-[4-O-[2,3-O-(3-methoxybenzylidene)hexopyranosyl]-hexopyranosyl]tyrosyl-3-(2-iminoimidazolidin-4-yl)seryl-3-(3-hexopyranosyl-2-iminoimidazolidin-4-yl)serylseryl]]
MIC Staphylococcus haemolyticus (GC 4546) (Staphylococcus sp.; [1]): 16 µg/mL (≈ 11.3 µM)
MIC Staphylococcus haemolyticus (GC 4546) (Staphylococcus sp.; [4]): 16 µg/mL (≈ 11.3 µM)
